The results in this text go back to US10130590B2, “Methods of treating cancer with atovaquone-related compounds” (DANA-FARBER CANCER INSTITUTE, INC., priority 2013, dated 2018).

One assay deals with NF-κB. Description: NF-κB cell-based reporter system. On the procedure: To determine if atovaquone inhibits STAT3, it was tested in a cell-based reporter system of STAT3 transcriptional activity (Nelson E A, et al. (2008) Nifuroxazide inhibits survival of multiple myeloma cells by directly inhibiting STAT3. Blood 112(13):5095-5102). These cells lack basal STAT3 activation; upon IL-6 treatment, STAT3 becomes activated and drives transcription of a STAT3-dependent luciferase reporter gene. The STAT3-luc reporter cells were pre-treated with drug for 1 hour, then stimulated with IL-6 (10 ng/ml) for 5 hr. Activity of firefly luciferase was measured and normalized by cell viability (Cell Titer Glo). […] To determine if atovaquone inhibits STAT3 activity specifically over other transcription factors, it was tested in cell-based reporter systems for STAT1 and STAT5, two other STAT family members, and NF-κB, an unrelated transcription factor.

Assay [1] deals with malignant hematological cell lines that lack STAT3 activation. Briefly: Cell viability of hematologic cancer cells lacking STAT3 activation. The assay is classed as cell-based. The settings on record: 72 hours. On the procedure:
Western blotting was performed as previously described (Battle T E, Arbiser J, & Frank D A (2005) The natural product honokiol induces caspase dependent apoptosis in B-cell chronic lymphocytic leukemia (B-CLL) cells. Blood 106(2):690-697). Antibodies to phospho-MAPK (9101), total MAPK (9102), phospho-Y705 STAT3 (9131), phospho-S6 (2215), total S6 (2217), phospho-4E-BP1 (9451), total 4E-BP1 (9644), total RSK (9355), phospho-S6K (9234, 85 used at 1:5000), total S6K (2708), phospho-eIF2α (9721, used at 1:1000), total eIF2α (5324), ATF4 (11815, used at 1:1000), PDGFRβ (3169), IGF1Rβ (9750), EGFR (2232), and HER2 (2242) were from Cell Signaling Technology. Phospho-RSK antibody was from R&D (AF889). Antibodies to total STAT3 (sc-482) and gp130 (sc-656, used at 1:1000) were from Santa Cruz Biotechnology. Phospho-S727 STAT3 antibody was described previously (229). REDD1 antibody was from Proteintech (10638-1-AP, used at 1:1000). Antibody recognizing full-length and cleaved ATF6 was from Abcam (ab122897, used at 1:1000). Antibodies to tubulin (T5168) and beta actin (A5316) were from Sigma. All antibodies were used at 1:10000 dilution for western blot unless otherwise noted. […] Cell viability was measured as ATP-dependent luminescence by Cell Titer Glo (Promega). […]

Consider `O=C1C(O)=C([C@H]2CC[C@H](c3ccc(Cl)cc3)CC2)C(=O)c2ccccc21` [atovaquone, trans-2-[4-(4-chlorophenyl)cyclohexyl]-3-hydroxy-1,4-naphthalenedione], for which, in the assay with NF-κB, the “NF-κB transcription factor activity” value was “modestly affected at the higher doses”. The “viability of malignant hematological cell lines that lack STAT3 activation” value in assay [1] is “reduced the viability”.
